ChEMBL document CHEMBL1143131, “Synthesis and anti-HIV activity of GS-9148 (2'-Fd4AP), a novel nucleoside phosphonate HIV reverse transcriptase inhibitor” (Bioorg Med Chem Lett, 2008)

Experiments:
[1] = Cytotoxicity against human MT2 cells; format: cell-based
[2] = system: Human immunodeficiency virus; assay: Antiviral activity against HIV with reverse transcriptase M184V mutation assessed as fold resistance relative to wild type; format: functional
[3] = system: Human immunodeficiency virus 1; assay: Antiviral activity against wild type HIV1 3B in MT2 cells; format: functional, organism-based; settings: Human immunodeficiency virus 1, 3B
[4] = system: Human immunodeficiency virus; assay: Antiviral activity against HIV with reverse transcriptase K65R mutation assessed as fold resistance relative to wild type; format: functional
[5] = system: Human immunodeficiency virus; assay: Antiviral activity against HIV with reverse transcriptase 6TAMs mutation assessed as fold resistance relative to wild type; format: functional
[6] = molecular target: Human immunodeficiency virus type 1 reverse transcriptase (Human immunodeficiency virus 1, UniProt Q72547); assay: Inhibition of wild type HIV 3B reverse transcriptase

Row | SMILES | CC50 [1] [µM] | Activity [2] | EC50 [3] [µM] | Activity [4] | Activity [5] | IC50 [6] [µM]
1 | Nc1ncnc2c1ncn2[C@@H]1C=C[C@H](OCP(=O)(O)O)O1 | > 1000 | 7.1 | 5.9 | 3.6 | 13.7 | –
2 | Nc1ncnc2c1ncn2[C@H]1C=C[C@@H](OCP(=O)(O)O)O1 | > 1000 | 0.9 | 2.1 | 2.9 | 2.9 | 0.6
3 | Nc1ncnc2c1ncn2[C@@H]1O[C@H](OCP(=O)(O)O)C=C1F [GS-9148] | > 1000 | 0.8 | – | 1.1 | 4.3 | 1.9
4 | C[C@H](Cn1cnc2c(N)ncnc21)OCP(=O)(O)O [TENOFOVIR ANHYDROUS] | > 500 | 0.7 | – | 4.3 | 8.8 | –
5 | Cc1cn([C@H]2C[C@H](N=[N+]=[N-])[C@@H](CO)O2)c(=O)[nH]c1=O [ZIDOVUDINE] | > 200 | 0.7 | 0.16 | 1.2 | >50 | –
